# Measurements published in patent publication US9072717B2, “Cosmetic compositions containing alpha glucosidase inhibitors and methods of use” (ELC Management LLC, priority 2007, dated 2015).
# Target: T1, α-glucosidase—Saccharomyces cerevisiae recombinant (Saccharomyces cerevisiae, UniProt P53341)
# T1 construct: purchased Sigma G0660
# Assay: alpha glucosidase inhibitory activity assay (release of p-nitrophenol from p-nitrophenyl-α-D-glucoside)
# Type: biochemical
# Details: end concentration in the well 0.8 mM; 'should cause about 50% inhibition'
# Protocol: [drawing 1] wherein the α-glucosidase activity is measured by the release of p-nitrophenol, and as further set forth in Example 1.
# Materials were tested for alpha glucosidase inhibitory activity as follows:
# Materials: Standard laboratory equipment, 96 well half area plates with UV transparent bottom (Costar, 3679), 8 channel multi pipette (20 to 200 μl), and spectrophotometer, Spectra Max Plus (Molecular Devices).
# Reagents: • (a) Distilled water • (b) Potassium dihydrogen phosphate • (c) Dimethylsulfoxide (Acros, 12779) • (d) α-glucosidase—Saccharomyces cerevisiae recombinant (min. 125 U/mg protein) (Sigma, G0660) • (e) p-nitrophenol-α-D-glucopyranoside (Sigma, N1377) • (f) Australine hydrochloride, castanospermum australe (Calbiochem, #189422) (reference inhibitor)
# 60 μl of reference inhibitor is needed per well)
# Stock solution of the test sample is prepared using 142 mM potassium phosphate buffer (solubility of test sample can be improved using DMSO/potassium phosphate mixtures. The end concentration of DMSO should not exceed 1% v/v which corresponds to 1.66% DMSO in the sample stock solution. […]
# Pipette with 8 channel multi-pipette 20 μl of the enzyme and mix well. […] The absorbance was measured at […].
# For each concentration of potential inhibitor, the initial reaction velocity is calculated, being the initial slope of the absorbance vs. time data. […]
# T1 sequence (P53341 whole entry): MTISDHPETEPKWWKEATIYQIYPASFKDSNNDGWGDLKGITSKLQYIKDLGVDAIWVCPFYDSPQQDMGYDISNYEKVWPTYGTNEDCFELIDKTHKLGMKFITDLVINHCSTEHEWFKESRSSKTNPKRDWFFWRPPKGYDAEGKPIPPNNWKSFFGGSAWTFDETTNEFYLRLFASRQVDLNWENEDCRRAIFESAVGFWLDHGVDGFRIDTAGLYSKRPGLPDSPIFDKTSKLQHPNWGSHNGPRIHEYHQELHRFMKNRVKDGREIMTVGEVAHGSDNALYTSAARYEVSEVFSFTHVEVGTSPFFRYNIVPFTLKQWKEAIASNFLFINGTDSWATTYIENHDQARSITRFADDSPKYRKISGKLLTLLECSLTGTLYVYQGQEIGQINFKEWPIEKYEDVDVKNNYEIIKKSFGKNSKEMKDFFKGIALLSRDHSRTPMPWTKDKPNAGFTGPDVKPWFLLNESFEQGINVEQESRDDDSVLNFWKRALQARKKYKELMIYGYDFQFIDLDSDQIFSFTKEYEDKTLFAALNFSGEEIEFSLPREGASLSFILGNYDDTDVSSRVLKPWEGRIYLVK
smiles,measurement,value
"Cl.OC[C@@H]1[C@@H](O)[C@H](O)[C@H]2[C@@H](O)CCN21 [Australine HCl, Australine hydrochloride]",inhibition in the well (reference inhibitor),about 50%
